Each structure is given as a SMILES string.

This assay deals with Pyricularia grisea. The experiment in a line: Antifungal activity against Magnaporthe grisea infected rice plant assessed as logarithm of fungal control value at 100 ppm after 5 days. The assay is classed as functional.
For `Cn1c(CC(=O)Nc2ccc(Cl)cc2)cs/c1=N\c1ccc(Oc2ccccc2)cc1`, the Activity turned out to be 1.92.
Consider `COc1ccc(NC(=O)Cc2cs/c(=N\c3ccc(C(F)(F)F)cc3)n2C)cc1`, for which the Activity came out at 1.99.
With `Cn1c(CC(=O)Nc2ccc(Cl)cc2)cs/c1=N\c1ccc(F)c(Cl)c1`, the Activity was 1.98.
Turning to `CCOc1ccc(NC(=O)Cc2cs/c(=N\c3ccc(F)c(Cl)c3)n2C)cc1`, the Activity turned out to be 1.94.
In the case of `COc1ccc(NC(=O)Cc2cs/c(=N\c3cccc([N+](=O)[O-])c3)n2C)cc1`, the Activity amounted to 1.99.
As to `Cn1c(CC(=O)Nc2ccc(OC(F)(F)F)cc2)cs/c1=N\c1cccc(C(F)(F)F)c1`, the Activity is on record as 1.7.
Regarding `Cn1c(CC(=O)Nc2ccc(Br)cc2)cs/c1=N\c1cccc(F)c1`, the Activity is reported as 1.9.
`CCc1ccc(NC(=O)Cc2cs/c(=N\c3ccc(Br)cc3C)n2C)cc1`: the Activity was found to be 1.98.
As for `Cc1ccc(NC(=O)Cc2cs/c(=N\c3ccccc3F)n2C)cc1`, the Activity turned out to be 1.94.
For `CCCCc1ccc(NC(=O)Cc2cs/c(=N\c3cccc(F)c3)n2C)cc1` the value was 1.
The value for `Cn1c(CC(=O)Nc2ccc(OC(F)(F)F)cc2)cs/c1=N\c1cccc(Br)c1` was 1.7.
On to `CCc1ccc(NC(=O)Cc2cs/c(=N\c3cccc(Cl)c3C)n2C)cc1`, for which the Activity is 1.95.
Regarding `CCc1ccc(NC(=O)Cc2cs/c(=N\c3ccc(F)cc3Cl)n2C)cc1`, the Activity is on record as 1.98.
Turning to `CCc1ccc(NC(=O)Cc2cs/c(=N\c3ccc(Br)cc3F)n2C)cc1`, the Activity came out at 2.
On to `CCc1ccc(NC(=O)Cc2cs/c(=N\c3ccc(C)cc3Br)n2C)cc1`, for which the Activity worked out at 1.94.
`CCOc1ccc(NC(=O)Cc2cs/c(=N\c3ccc(F)cc3F)n2C)cc1`: the Activity amounted to 1.9.
For the molecule `COc1ccc(NC(=O)Cc2cs/c(=N\c3ccc(Cl)c(C(F)(F)F)c3)n2C)cc1`, the Activity was 2.
For `COc1ccc(NC(=O)Cc2cs/c(=N\c3cccc(C(F)(F)F)c3)n2C)cc1` the value was 2.
On to `COc1ccc(NC(=O)Cc2cs/c(=N\c3ccc(C)cc3C)n2C)cc1`, for which the Activity was 1.96.
For the molecule `COc1ccc(NC(=O)Cc2cs/c(=N\c3ccccc3Br)n2C)cc1`, the Activity was 1.92.
In the case of `COc1ccc(NC(=O)Cc2cs/c(=N\c3ccccc3C(C)C)n2C)cc1`, the Activity stood at 1.9.
The value for `CCc1ccc(NC(=O)Cc2cs/c(=N\c3ccc(F)c([N+](=O)[O-])c3)n2C)cc1` was 1.98.
Consider `COc1ccc(NC(=O)Cc2cs/c(=N\c3ccc(Cl)cc3F)n2C)cc1`, for which the Activity came to 1.97.
Consider `COc1ccc(NC(=O)Cc2cs/c(=N\c3ccc(F)cc3F)n2C)cc1`, for which the Activity amounted to 1.97.
Regarding `Cn1c(CC(=O)Nc2ccc([N+](=O)[O-])cc2)cs/c1=N\c1ccc(F)cc1F`, the Activity turned out to be 1.23.
On to `Cn1c(CC(=O)Nc2ccc(Oc3ccccc3)cc2)cs/c1=N\c1ccc(F)cc1F`, for which the Activity was 1.23.
With `COc1ccccc1/N=c1\scc(CC(=O)Nc2ccc(OC(F)(F)F)cc2)n1C`, the Activity is 0.7.
As for `Cc1ccc(/N=c2\scc(CC(=O)Nc3ccc(OC(F)(F)F)cc3)n2C)c(C)c1`, the Activity is listed as 1.23.
For the molecule `Cn1c(CC(=O)Nc2ccc(C#N)cc2)cs/c1=N\c1ccc(F)cc1F`, the Activity worked out at 1.23.
Turning to `CCc1ccc(NC(=O)Cc2cs/c(=N\c3ccccc3F)n2C)cc1`, the Activity was 1.99.
The value for `Cn1c(CC(=O)Nc2ccc(C(F)F)cc2)cs/c1=N\c1ccc(Br)cc1` was 1.4.
As for `Cn1c(CC(=O)Nc2ccc(Br)cc2)cs/c1=N\c1cccc(Br)c1`, the Activity was determined as 1.99.
Regarding `CCOc1ccc(NC(=O)Cc2cs/c(=N\c3cccc(Br)c3)n2C)cc1`, the Activity was determined as 1.91.
As to `Cc1ccc(NC(=O)Cc2cs/c(=N/c3ccc(F)cc3)n2C)cc1`, the Activity is recorded as 1.96.
Take `CCc1ccc(NC(=O)Cc2cs/c(=N\c3ccc(Cl)cc3Cl)n2C)cc1`: the Activity amounted to 1.96.
For `COc1ccc(NC(=O)Cc2cs/c(=N\c3ccc(C)c(F)c3)n2C)cc1`, the Activity is reported as 1.98.
For the molecule `COc1ccc(NC(=O)Cc2cs/c(=N\c3ccc(OC)c(Cl)c3)n2C)cc1`, the Activity is reported as 1.98.
For `CCc1ccc(NC(=O)Cc2cs/c(=N\c3ccc(OC)cc3C)n2C)cc1` the value was 2; for `Cc1ccc(NC(=O)Cc2cs/c(=N\c3ccc(F)cc3F)n2C)cc1`, 1.99; for `COc1ccc(NC(=O)Cc2cs/c(=N\c3ccc(Cl)c(Cl)c3)n2C)cc1`, 1.98.
For `Cn1c(CC(=O)Nc2ccc(Cl)cc2)cs/c1=N\c1ccc(OC(F)(F)F)cc1` the value was 1.82.
Consider `CCc1ccc(NC(=O)Cc2cs/c(=N\c3ccc(Cl)cc3F)n2C)cc1`, for which the Activity amounted to 1.99.
Consider `COc1ccc(NC(=O)Cc2cs/c(=N\c3cccc(C)c3)n2C)cc1`, for which the Activity was found to be 1.98.
Regarding `COc1ccc(NC(=O)Cc2cs/c(=N\c3ccccc3F)n2C)cc1`, the Activity came to 1.99.
As to `Cn1c(CC(=O)Nc2ccc([N+](=O)[O-])cc2)cs/c1=N\c1cccc(F)c1`, the Activity stood at 1.23.
Regarding `Cn1c(CC(=O)Nc2ccc(OC(F)(F)F)cc2)cs/c1=N\c1cccc(F)c1`, the Activity was 1.62.
Turning to `COc1ccc(NC(=O)Cc2cs/c(=N\c3ccc(F)c(Cl)c3)n2C)cc1`, the Activity turned out to be 1.98.
As to `CCc1ccc(NC(=O)Cc2cs/c(=N\c3ccc([N+](=O)[O-])cc3OC)n2C)cc1`, the Activity came to 1.81.
Turning to `CCc1ccc(/N=c2\scc(CC(=O)Nc3ccc(OC)cc3)n2C)cc1`, the Activity is listed as 1.98.
The value for `CCc1ccc(NC(=O)Cc2cs/c(=N\c3ccc(Br)cc3)n2C)cc1` was 1.98.
For `Cn1c(CC(=O)Nc2ccc(Cl)cc2)cs/c1=N\c1cccc(Br)c1`, the Activity was found to be 1.98.
In the case of `Cn1c(CC(=O)Nc2ccc(Oc3ccccc3)cc2)cs/c1=N\c1cccc(F)c1`, the Activity stood at 1.23.
Take `COc1ccc(NC(=O)Cc2cs/c(=N\c3cccc(Br)c3)n2C)cc1`: the Activity is given as 1.99.
For `COc1cccc(/N=c2\scc(CC(=O)Nc3ccc(Cl)cc3)n2C)c1`, the Activity stood at 1.76.
For `COc1ccc(NC(=O)Cc2cs/c(=N\c3ccccc3Cl)n2C)cc1`, the Activity came to 1.98.
The value for `Cn1c(CC(=O)Nc2ccc(Cl)cc2)cs/c1=N\c1cccc(F)c1` was 1.96; that for `CCc1ccc(NC(=O)Cc2cs/c(=N\c3ccc(C)cc3Cl)n2C)cc1` was 2; that for `CCCCc1ccc(NC(=O)Cc2cs/c(=N\c3ccc(F)c(Cl)c3)n2C)cc1` was 1.3.
The value for `Cn1c(CC(=O)Nc2ccc(OC(F)(F)F)cc2)cs/c1=N\c1ccc(F)cc1` was 0.9.
For `Cn1c(CC(=O)Nc2ccc(Oc3ccccc3)cc2)cs/c1=N\c1cccc(Br)c1` the value was 0.9; for `CCc1ccc(NC(=O)Cc2cs/c(=N\c3ccc(C#N)c(Cl)c3)n2C)cc1`, 1.98; for `CCc1ccc(NC(=O)Cc2cs/c(=N\c3ccc(Br)c(C)c3)n2C)cc1`, 1.98.
In the case of `CCCCOc1ccc(NC(=O)Cc2cs/c(=N\c3cccc(F)c3)n2C)cc1`, the Activity is 1.
`COc1ccc(NC(=O)Cc2cs/c(=N\c3cccc(F)c3)n2C)cc1`: the Activity was 1.97.
